Paper PMC5242521 (PLoS ONE, 2017)
Where two headings read alike, the source gives them in different places.

Tests used:
Format in all cases: cell-based
[1] = biological target: T1, MATE2-K (Homo sapiens, UniProt Q86VL8); assay: MATE2-K activity: TEA accumulation in HEK-MATE2-K cells
T1 construct: expressed in transfected cells; host or cells: HEK293
Protocol: (§1) The effects of pyrethroids on activity of ABC and SLC transporters were determined through measuring cellular accumulation or retention of fluorescent or radiolabeled reference substrates for transporters, in the presence or absence of reference inhibitors, as previously described [41].
For accumulation assays (performed for all transporters, excepted BCRP), transporter-expressing cells usually cultured in 48-well plates were first incubated at 37°C with reference substrates in the absence (control) or presence of pyrethroids or reference inhibitors, in a well-defined transport assay medium [42], consisting of 136 mM NaCl, 5.3 mM KCl, 1.1mM KH2PO4, 0.8 mM MgSO4, 1.8 mM CaCl2, 10 mM HEPES, 11 mM D-glucose and adjusted to pH = 7.4 (excepted for MATE transporter assays, for which pH was set to 8.4). The nature of substrates and reference inhibitors and the incubation times with substrates, that varied according to the transporter, were selected in agreement with previous studies [41, 43] and are indicated in S3 Table. The total incubation volume with substrates was 200 μL/well. After washing twice in phosphate-buffered saline (PBS) (200 μL/well/washing), cells were lysed in distilled water (155 μL/well). An aliquot of cell lysate (5 μL) was then taken for determining cellular protein content by the Bradford method [44]. The rest of lysate (150 μL/well) was used for measuring intracellular accumulation of reference substrates by scintillation counting or spectrofluorimetry using a SpectraMax Gemini SX spectrofluorometer (Molecular Devices, Sunnyvale, CA, USA) (excitation and emission wavelengths were 485 and 535 nm, respectively, for rhodamine 123 and fluorescein, and 355 and 460 nm, respectively, for DAPI).
(§2) Intracellular concentrations of reference substrates were initially expressed as fluorescence arbitrary units (for fluorescent dye substrates) or as moles (for radiolabeled substrates) and normalized to cellular protein content, determined by the Bradford method [44]. […]

[2] = biological target: T2, OATP1B3 (Homo sapiens, UniProt Q9NPD5); assay: OATP1B3 activity: fluorescein accumulation in CHO-OATP1B3 cells; conditions: pyrethroid up to 100 μM
T2 construct: expressed in transfected cells; host or cells: CHO
T2 sequence (Q9NPD5 1-702): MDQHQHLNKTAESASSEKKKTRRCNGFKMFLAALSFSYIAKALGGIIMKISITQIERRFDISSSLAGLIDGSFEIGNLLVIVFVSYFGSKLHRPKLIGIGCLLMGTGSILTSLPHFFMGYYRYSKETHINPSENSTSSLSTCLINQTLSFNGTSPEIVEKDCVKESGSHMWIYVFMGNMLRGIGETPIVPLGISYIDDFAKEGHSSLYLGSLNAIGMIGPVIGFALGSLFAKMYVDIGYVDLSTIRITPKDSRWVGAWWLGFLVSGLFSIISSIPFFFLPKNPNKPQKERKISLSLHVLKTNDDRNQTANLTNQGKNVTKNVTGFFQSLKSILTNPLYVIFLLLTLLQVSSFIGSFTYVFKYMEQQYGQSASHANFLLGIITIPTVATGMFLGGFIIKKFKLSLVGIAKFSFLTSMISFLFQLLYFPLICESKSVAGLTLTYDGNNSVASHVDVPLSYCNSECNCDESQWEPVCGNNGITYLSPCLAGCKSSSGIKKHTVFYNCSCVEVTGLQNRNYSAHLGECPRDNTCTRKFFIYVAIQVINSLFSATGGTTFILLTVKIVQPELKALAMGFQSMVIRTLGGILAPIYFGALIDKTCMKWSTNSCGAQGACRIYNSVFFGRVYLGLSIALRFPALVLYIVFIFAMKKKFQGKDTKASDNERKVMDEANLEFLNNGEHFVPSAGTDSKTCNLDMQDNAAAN
Protocol: as §1
For accumulation assays (performed for all transporters, excepted BCRP), transporter-expressing cells usually cultured in 48-well plates were first incubated at 37°C with reference substrates in the absence (control) or presence of pyrethroids or reference inhibitors, in a well-defined transport assay medium [42], consisting of 136 mM NaCl, 5.3 mM KCl, 1.1mM KH2PO4, 0.8 mM MgSO4, 1.8 mM CaCl2, 10 mM HEPES, 11 mM D-glucose and adjusted to pH = 7.4 (excepted for MATE transporter assays, for which pH was set to 8.4). The nature of substrates and reference inhibitors and the incubation times with substrates, that varied according to the transporter, were selected in agreement with previous studies [41, 43] and are indicated in S3 Table. The total incubation volume with substrates was 200 μL/well. […]
as §2

[3] = biological target: T3, MRP2 (Homo sapiens, UniProt Q92887); assay: MRP2 activity: CF accumulation in HuH-7 cells; conditions: for inhibition at 100 μM: human, pH 7.4
T3 construct: multidrug resistance-associated protein (MRP) 2/ABCC2-expressing human hepatoma HuH-7 cells; endogenous in cells; host or cells: HuH-7 human hepatoma cells
T3 sequence (Q92887 whole entry): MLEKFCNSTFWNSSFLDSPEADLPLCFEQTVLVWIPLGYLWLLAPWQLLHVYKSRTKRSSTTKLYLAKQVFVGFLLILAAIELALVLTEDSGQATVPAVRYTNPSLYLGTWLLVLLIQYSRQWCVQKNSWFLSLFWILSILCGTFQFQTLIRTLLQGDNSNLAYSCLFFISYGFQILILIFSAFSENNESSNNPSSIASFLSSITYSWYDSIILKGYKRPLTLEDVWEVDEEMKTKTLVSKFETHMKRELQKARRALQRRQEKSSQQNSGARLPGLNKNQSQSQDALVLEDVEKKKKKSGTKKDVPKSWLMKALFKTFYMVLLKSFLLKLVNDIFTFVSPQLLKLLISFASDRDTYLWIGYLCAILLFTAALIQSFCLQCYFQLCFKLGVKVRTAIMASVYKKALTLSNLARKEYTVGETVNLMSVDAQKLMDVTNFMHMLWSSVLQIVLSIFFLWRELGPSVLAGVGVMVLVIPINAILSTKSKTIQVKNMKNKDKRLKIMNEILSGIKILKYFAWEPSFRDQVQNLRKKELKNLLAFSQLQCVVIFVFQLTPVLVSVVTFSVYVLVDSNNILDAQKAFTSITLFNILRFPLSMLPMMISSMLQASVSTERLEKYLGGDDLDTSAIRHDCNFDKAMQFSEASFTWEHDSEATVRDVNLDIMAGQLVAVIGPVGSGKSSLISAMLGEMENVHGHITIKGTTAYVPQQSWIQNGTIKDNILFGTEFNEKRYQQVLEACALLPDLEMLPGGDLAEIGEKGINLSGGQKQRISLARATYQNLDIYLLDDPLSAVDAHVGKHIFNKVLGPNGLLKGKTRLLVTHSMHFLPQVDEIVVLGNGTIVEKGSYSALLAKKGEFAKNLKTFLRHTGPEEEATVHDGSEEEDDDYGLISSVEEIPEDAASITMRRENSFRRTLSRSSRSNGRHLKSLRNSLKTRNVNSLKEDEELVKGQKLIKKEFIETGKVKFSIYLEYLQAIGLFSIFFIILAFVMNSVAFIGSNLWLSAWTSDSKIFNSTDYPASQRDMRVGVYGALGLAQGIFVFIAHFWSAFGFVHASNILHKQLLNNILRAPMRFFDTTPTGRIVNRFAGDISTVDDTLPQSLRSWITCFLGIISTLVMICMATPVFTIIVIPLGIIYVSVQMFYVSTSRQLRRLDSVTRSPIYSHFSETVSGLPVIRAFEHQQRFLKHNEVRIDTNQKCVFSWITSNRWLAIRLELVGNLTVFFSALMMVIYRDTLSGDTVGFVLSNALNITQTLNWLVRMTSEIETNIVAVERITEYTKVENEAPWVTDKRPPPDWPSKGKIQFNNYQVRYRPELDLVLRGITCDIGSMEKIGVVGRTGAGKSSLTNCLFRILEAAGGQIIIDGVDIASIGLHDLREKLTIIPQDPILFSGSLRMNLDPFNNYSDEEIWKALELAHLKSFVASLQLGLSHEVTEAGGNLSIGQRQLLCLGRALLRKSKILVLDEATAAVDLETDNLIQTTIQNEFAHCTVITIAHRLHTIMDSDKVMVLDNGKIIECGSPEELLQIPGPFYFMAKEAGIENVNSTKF
Protocol: The initial tested concentration of pyrethroids was 100 μM.

[4] = biological target: T4, OCT1 (Homo sapiens, UniProt O15245); assay: Cis-inhibition of OCT1-mediated TEA accumulation in HEK-OCT1 cells; conditions: pyrethroid 100 μM; 29 μM [14C]-TEA, 5 min
T4 sequence (O15245 1-554): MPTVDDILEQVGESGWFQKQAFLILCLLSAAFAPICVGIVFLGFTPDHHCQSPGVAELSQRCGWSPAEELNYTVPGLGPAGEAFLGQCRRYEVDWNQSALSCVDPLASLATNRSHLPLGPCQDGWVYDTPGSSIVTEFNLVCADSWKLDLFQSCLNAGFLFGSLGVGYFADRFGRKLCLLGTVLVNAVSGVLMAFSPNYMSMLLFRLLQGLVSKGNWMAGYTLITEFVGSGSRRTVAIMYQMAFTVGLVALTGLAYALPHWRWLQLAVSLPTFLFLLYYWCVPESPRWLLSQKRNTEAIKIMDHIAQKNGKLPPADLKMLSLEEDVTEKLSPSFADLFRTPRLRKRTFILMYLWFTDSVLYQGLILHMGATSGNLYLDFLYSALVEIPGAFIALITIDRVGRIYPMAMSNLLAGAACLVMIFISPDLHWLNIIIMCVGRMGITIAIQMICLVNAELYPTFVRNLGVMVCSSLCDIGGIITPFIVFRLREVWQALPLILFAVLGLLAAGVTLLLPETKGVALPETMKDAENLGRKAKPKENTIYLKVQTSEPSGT
Protocol: Intracellular accumulation of TEA was then determined by scintillation counting. […] After washing, cells were next re-incubated with 29 μM [1-^14C]-TEA for 5 min at 37°C. Intracellular accumulation of [1-^14C]-TEA was then determined by scintillation counting.

T1 sequence (Q86VL8 1-566 isoform Q86VL8-3): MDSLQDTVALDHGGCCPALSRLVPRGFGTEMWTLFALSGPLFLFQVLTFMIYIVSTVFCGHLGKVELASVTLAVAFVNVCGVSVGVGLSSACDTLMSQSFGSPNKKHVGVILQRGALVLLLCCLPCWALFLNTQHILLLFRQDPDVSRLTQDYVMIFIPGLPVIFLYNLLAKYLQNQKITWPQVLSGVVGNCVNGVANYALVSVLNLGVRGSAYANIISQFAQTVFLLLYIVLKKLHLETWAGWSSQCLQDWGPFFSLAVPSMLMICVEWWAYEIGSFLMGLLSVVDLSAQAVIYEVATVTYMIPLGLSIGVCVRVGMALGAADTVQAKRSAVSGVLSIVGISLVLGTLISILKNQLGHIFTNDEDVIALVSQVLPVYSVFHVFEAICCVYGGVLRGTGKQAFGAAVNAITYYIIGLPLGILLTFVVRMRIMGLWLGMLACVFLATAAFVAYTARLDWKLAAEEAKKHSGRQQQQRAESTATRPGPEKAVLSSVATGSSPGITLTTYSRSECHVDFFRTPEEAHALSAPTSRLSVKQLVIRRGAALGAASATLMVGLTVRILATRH

Structure (SMILES)	effect on MATE2-K activity [1]	effect on OATP1B3 activity [2]	effect on OATP1B3 activity ([2]; listed as Tetramethrin)	IC50 [3]	inhibition at 100 μM ([3]; pyrethroid 100 μM, HuH-7 cells, CF, read-out: inhibition of MRP2 activity)	effect on MATE2-K activity ([1]; pyrethroid up to 100 μM, HEK-MATE2-K cells, TEA)	effect on MATE2-K activity ([1]; pyrethroid up to 100 μM, HEK-MATE2-K cells, TEA, listed as Allethrin)	cis-effect on TEA accumulation in HEK-OCT1 cells [4]	inhibition at 100 μM [3]
CC(C)=CC1C(C(=O)OCN2C(=O)C3=C(CCCC3)C2=O)C1(C)C (stereo not shown) [tetramethrin]	No effect (up to 100 μM)	failed to alter	No effect (up to 100 μM)	65.5 µM	58.3%	–	–	–	–
C=CCC1=C(C)C(OC(=O)C2C(C=C(C)C)C2(C)C)CC1=O (stereo not shown) [allethrin]	–	–	–	48.2 µM	–	failed to alter	No effect (up to 100 μM)	markedly cis-inhibit	83.8%
